Target: T1, L-type calcium channel, the α1C subunit (Homo sapiens, UniProt Q13936)
T1 construct: expressed in transfected cells
Experiment: FLIPR assay of K+-stimulated calcium influx in C1-6-37-3 cells (HEK 293 stably transfected with L-type α1C channel and Kir 2.3)
Format: cell-based
Settings: fluo-3 loaded cells, increasing potassium concentration (FIG. 4)
Protocol: The cell line used in this embodiment has a stably transfected L-type calcium channel, the α1C subunit. It also was transfected with the Kir 2.3 inward rectifier K channel, which allows for control of cell membrane potential through alteration of extracellular [K^+]o. Preincubation of the cells for 10 min in 30 mM [K^+]o partially depolarizes the cells.
Specifically exemplified herein is an assay to determine state-dependent drug-calcium channel interactions using a cell line that co-expresses a potassium channel (Kir2.3) that determines the resting membrane potential of the cells as a function of the external potassium ion concentration ([K]o) and a voltage gated calcium channel. Co-expressed in these cells is the L-type voltage gated calcium channel complex (alpha1C, alpha2-delta, beta2a). Potassium is used in a two step manner in this assay. First it is used to set the resting membrane potential (Vm) during antagonist incubation. […] This calcium influx is detected using a calcium sensitive dye (eg Fluo-3, Fluo4, Fura2, etc.). If the calcium influx is diminished by exposure to antagonists, this will be detected when compared to the control condition.
Hek 293 cells were stably transfected with the alpha 1C subunit of the L-type Calcium ion channel and Kir 2.3 inward K^+ rectifying channel (C1-6-37-3 cells). Calcium influx into the cells was measured in a FLIPR™ (Molecular Devices, CA). […]

T1 sequence (Q13936 whole entry): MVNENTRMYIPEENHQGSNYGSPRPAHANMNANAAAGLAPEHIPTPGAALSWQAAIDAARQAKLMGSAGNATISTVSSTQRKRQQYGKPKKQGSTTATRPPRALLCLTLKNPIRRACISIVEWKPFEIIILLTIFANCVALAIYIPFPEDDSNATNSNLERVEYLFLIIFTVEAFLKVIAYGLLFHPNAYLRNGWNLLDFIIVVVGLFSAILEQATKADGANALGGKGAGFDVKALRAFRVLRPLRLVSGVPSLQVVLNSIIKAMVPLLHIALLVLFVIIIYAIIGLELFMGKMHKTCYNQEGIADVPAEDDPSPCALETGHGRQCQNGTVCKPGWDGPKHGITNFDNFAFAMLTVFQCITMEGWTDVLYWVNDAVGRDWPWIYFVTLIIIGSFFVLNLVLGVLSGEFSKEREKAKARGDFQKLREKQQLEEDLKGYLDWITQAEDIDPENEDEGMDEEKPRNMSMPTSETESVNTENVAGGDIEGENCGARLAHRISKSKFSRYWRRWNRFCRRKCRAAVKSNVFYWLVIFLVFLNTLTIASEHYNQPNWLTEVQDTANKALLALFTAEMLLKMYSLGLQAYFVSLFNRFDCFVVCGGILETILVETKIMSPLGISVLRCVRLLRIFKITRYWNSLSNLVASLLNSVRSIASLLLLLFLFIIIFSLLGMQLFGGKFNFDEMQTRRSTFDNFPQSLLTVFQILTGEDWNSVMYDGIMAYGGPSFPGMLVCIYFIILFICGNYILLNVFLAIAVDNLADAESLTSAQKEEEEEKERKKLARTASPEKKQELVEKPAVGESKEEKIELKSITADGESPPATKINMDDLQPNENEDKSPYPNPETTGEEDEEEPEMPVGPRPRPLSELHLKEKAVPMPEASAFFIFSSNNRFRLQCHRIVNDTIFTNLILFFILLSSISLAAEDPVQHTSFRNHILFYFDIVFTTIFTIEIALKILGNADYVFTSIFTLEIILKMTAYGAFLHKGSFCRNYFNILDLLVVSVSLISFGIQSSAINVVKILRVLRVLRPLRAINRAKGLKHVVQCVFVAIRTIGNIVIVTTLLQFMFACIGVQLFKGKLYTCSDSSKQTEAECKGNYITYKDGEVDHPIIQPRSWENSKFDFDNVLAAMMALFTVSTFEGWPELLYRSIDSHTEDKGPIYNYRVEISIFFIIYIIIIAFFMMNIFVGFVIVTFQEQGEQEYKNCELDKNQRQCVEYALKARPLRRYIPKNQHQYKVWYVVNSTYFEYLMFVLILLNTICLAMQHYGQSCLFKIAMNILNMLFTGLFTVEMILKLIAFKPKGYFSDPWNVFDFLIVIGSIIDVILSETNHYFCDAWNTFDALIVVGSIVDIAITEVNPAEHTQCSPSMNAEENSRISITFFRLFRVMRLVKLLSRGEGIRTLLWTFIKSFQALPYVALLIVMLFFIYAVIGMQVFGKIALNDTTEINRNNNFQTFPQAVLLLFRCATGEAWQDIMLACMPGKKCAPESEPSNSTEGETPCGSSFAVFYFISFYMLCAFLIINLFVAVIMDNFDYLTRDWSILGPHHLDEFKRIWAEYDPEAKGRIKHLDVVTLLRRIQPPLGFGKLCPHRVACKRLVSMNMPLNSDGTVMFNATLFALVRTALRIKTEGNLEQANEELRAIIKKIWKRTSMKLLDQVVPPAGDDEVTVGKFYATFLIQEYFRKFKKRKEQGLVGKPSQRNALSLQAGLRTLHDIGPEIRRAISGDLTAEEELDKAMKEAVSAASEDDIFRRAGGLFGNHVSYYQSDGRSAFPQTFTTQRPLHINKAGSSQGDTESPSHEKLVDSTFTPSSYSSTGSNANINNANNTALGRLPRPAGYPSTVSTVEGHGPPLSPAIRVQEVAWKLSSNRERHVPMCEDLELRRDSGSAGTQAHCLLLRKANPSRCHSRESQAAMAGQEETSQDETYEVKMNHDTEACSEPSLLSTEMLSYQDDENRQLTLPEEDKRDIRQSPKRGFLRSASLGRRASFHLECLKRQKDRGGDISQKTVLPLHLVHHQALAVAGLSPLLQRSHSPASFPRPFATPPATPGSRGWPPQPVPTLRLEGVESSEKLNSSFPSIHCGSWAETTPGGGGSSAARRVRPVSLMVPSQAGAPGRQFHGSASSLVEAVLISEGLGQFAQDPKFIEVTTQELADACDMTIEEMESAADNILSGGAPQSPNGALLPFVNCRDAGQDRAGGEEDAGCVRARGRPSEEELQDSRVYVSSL
T1 sequence (P54289 25-946 partner limits assumed): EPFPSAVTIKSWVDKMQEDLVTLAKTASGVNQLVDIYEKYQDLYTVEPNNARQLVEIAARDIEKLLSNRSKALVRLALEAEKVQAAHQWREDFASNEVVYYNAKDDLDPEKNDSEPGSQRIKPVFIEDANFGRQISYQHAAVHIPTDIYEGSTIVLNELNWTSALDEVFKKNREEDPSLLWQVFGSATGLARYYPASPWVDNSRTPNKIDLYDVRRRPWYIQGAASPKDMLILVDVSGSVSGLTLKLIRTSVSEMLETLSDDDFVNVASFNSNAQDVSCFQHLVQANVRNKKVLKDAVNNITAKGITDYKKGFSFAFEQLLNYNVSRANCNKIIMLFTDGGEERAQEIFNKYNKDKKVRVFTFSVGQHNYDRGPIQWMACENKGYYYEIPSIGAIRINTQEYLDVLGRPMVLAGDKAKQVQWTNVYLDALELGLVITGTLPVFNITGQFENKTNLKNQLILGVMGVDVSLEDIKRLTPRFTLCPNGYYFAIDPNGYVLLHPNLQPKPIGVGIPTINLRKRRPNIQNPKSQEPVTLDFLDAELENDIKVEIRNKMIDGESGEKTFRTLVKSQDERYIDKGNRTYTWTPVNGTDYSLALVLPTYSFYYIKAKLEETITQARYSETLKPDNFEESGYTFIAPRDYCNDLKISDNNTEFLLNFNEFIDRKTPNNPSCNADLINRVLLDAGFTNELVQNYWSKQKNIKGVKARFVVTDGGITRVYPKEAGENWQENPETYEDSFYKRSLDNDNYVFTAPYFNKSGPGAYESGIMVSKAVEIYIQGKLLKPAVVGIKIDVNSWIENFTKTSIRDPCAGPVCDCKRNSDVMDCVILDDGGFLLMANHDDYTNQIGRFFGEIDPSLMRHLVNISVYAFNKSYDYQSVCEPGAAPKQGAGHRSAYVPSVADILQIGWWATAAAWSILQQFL
T1 sequence (P54289 947-1103 partner limits assumed): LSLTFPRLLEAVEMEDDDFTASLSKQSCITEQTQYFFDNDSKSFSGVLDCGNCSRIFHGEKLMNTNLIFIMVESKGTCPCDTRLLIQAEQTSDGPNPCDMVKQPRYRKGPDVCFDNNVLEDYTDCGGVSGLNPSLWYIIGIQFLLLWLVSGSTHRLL
T1 sequence (Q08289 whole entry partner): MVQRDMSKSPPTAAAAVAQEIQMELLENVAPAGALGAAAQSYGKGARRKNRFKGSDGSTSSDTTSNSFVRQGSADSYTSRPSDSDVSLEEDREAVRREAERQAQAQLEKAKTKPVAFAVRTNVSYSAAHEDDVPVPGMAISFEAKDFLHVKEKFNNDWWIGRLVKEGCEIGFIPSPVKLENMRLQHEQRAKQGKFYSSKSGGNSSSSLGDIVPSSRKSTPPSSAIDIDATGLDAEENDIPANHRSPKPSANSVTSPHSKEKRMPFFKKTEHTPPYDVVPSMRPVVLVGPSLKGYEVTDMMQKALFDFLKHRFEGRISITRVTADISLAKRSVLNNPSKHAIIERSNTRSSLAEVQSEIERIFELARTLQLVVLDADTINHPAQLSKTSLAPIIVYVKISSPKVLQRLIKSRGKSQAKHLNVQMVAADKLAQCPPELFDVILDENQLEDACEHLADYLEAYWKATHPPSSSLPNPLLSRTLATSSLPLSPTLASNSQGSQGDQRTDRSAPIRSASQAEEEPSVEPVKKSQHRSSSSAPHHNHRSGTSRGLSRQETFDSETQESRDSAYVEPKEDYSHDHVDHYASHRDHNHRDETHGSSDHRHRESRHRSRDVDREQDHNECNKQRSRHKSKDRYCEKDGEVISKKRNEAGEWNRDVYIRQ

EC50: 11 mM
SMILES: [K+] [K^+]

Reference: patent US20060014206A1, “Assay methods for state-dependent calcium channel agonists/antagonists” (priority 2002, published 2006)
